According to patent US5622947A, “Benzoheterocyclic compounds and vasopressin antagonist and oxytocin antagonist compositions containing a benzoheterocyclic compound” (Otsuka Pharmaceutical Co., Ltd., priority 1992, dated 1997):
Structures can show the parent of a compound that is named as a salt.

Legend:
[1] = biological target: T1, V2 Recepter (rat kidney plasma membrane preparations) (Rattus norvegicus, UniProt Q00788); assay: V2 Recepter binding assay; settings: [3H]-Arg-vasopressin 4×10^-10 M, 4° C., pH 8.0, rat kidney plasma membrane
T1 construct: rat kidney plasma membrane preparations; from tissue; host or cells: rat kidney plasma membranes
Protocol: Test 2: V2 Recepter binding assay
By using rat kidney plasma membrane preparations prepared according to Hechter's method [by O. Hechter: J. Bio. Chem., 2.53, 3211 (1978)], the plasma membrane (100,000 dpm, 4×10^-10 M) of [^3 H]-Arg-vasopressin and a test compound (0.6 mg, 10^-10 to 10^-5 M) were incubated at 4° C. for 3 hours in 250 μl (in total volume) of 100 mM Tris-HCl buffer (pH=8.0), containing, 5 mM MgCl2, 1 mM EDTA and 0.1% BSA. After the incubation, the mixture, the mixture was filtered by using a glass filter (GF/F) so as to separate the membrane preparation combining with vasopressin, then washed twice with the buffer (5 ml). This glass filter was taken out and mixed with liquid scintillation cocktail. The amount of [^3 H]-vasopressin combining with the membrane was measured by a liquid scintillation counter and the rate of inhibitory effect of the test compound was calculated according to the following equation: Rate of the inhibitory
C1 : the amount of [^3 H]-vasopressin combining with the membrane in the presence of the testcompound of a known amount,
(§1) C0 : the amount of [^3 H]-vasopressin combining with the membrane in the absence of the test compound,
B1 : the amount of [^3 H]-vasopressin combining with the mebrane in the presence of the excess amount of vasopressin (10^-6 M).
The results are expressed as IC50 value, which is the concentration of the test compound required to achieve the inhibitory effect in the rate of 50%, and are shown in the following Table 157.

[2] = biological target: T2, V1 Recepter (rat liver plasma membrane preparations) (Rattus norvegicus, UniProt P30560); assay: V1 Recepter binding assay; settings: [3H]-Arg-vasopressin 2×10^-10 M, 37° C., 10 minutes, pH 8.0, rat liver plasma membrane
T2 construct: rat liver plasma membrane preparations; from tissue; host or cells: rat liver plasma membranes
Protocol: Test-1: V1 Recepter binding assay
By using rat liver plasma membrane preparations prepared according to Ichiraha's method [by Akira Ichihara: J. Bio. Chem., 258, 9283 (1983)], the plasma membrane (50,000 dpm, 2×10^-10 M) of [^3 H]-Arg-vasopressin and a test compound (60 μg, 10^-8 to 10^-4 M) were incubated at 37° C. for 10 minutes in 250 μl (in total volume) of 100 mM Tris-HCl buffer (pH=8.0), containing 5 mM MgCl2, 1 mM EDTA and 0.1% BSA. After the incubation, the mixture was filtered three times by using a glass filter (GF/F) so as to separate the membrane preparation by combining with vasopressin and then washed with the buffer (5 ml). This glass filter was taken out and mixed with a liquid of scintillation cocktail. The amount of [^3 H]-vasopressin combining with the membrane was measured by liquid scintillation counter and the rate of inhibitory effect of the test compound was calculated according to the following equation: […]
C1 : the amount of [^3 H]-vasopressin combining with the membrane in the presence of the test compound of a known amount,
as §1
B1 : the amount of [^3 H]-vasopressin combining with the membrane in the presence of the excess amount of vasopressin (10^-6 M).
The results are expressed as IC50 value, which is the concentration of the test compound required to achieve the inhitory effect in the rate of 50% and are shown in the following Table 156.

[3] = biological target: T3, Oxytocin receptor (uterin muscle membrane preparation) (Rattus norvegicus, UniProt P70536); assay: Oxytocin receptor binding assay; settings: [3H]-oxytocin 10^-9 M, 25°, one hour, pH 8.0, uterin muscle membrane, DES-treated
T3 construct: was homogenized, which was used as a membrane; from tissue; host or cells: uterine muscle membranes from diethylstilbestrol-treated animals
T3 sequence (P70536 1-388): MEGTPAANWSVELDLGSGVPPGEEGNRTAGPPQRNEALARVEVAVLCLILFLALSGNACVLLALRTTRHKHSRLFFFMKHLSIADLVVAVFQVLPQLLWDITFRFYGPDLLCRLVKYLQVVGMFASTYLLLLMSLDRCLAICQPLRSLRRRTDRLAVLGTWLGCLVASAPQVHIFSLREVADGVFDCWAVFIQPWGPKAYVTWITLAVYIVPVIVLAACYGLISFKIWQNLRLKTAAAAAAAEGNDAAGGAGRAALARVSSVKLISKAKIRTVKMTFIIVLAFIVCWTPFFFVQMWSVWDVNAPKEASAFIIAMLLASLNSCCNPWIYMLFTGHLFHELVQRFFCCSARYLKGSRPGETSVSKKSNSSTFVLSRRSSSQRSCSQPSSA
Summary of the method: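 Rat uterine membranes (0.2 mg; DES-primed day before) incubated 1 h at 25° with [3H]-oxytocin (10^-9 M) and compound (10^-9 to 10^-5 M) in 100 mM Tris-HCl pH 8.0, 5 mM MgCl2, 1 mM EDTA, 0.1% BSA. Filter-bound radioactivity counted; nonspecific with 5×10^-6 M oxytocin; IC50 reported.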

T2 sequence (P30560 whole entry): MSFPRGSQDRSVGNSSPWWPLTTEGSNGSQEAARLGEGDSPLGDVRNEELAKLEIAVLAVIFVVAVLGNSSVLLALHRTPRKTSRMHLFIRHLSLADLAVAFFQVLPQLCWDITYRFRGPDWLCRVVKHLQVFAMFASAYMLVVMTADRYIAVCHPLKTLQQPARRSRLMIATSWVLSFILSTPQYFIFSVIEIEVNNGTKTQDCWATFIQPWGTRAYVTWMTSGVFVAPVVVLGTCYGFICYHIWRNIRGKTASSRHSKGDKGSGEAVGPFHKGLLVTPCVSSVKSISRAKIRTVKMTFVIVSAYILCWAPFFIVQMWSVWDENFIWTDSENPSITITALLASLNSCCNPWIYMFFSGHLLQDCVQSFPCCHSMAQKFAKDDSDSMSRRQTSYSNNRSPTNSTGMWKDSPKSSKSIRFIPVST
T1 sequence (Q00788 whole entry): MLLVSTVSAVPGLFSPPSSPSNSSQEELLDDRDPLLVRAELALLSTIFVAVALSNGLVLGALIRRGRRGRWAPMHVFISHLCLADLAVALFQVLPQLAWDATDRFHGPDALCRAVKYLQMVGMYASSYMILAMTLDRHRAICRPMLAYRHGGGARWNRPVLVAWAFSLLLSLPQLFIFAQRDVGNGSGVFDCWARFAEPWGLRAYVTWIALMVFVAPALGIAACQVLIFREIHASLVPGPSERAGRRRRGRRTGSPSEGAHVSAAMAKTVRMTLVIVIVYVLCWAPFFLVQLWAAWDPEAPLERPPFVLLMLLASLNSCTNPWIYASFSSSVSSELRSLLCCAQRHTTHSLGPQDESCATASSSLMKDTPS

Row | SMILES | IC50 [1] [nM] | IC50 [2] [nM] | IC50 [3] [nM]
1 | COc1cc(NC(=O)c2ccccc2Cl)ccc1C(=O)N1CCCC(CC(=O)N2CCN(CC#N)CC2)c2cc(Cl)ccc21 (stereo not drawn) [Example 80, 5-(4-Cyanomethyl-1-piperazinyl)carbonylmethyl 7-chloro-1-[2-methoxy-4-(2-chlorobenzoylamino)benzoyl]-2,3,4,5-tetrahydro-1H-benzoazepine] | 9 | 16 | 84
2 | C=CCN1CCN(C(=O)CC2CCCN(C(=O)c3ccc(NC(=O)c4ccccc4Cl)cc3OC)c3ccc(Cl)cc32)CC1 (stereo not drawn) [Example 81, 5-(4-Allyl-1-piperazinyl)carbonylmethyl-7-chloro-1-[2-methoxy-4-(2-chlorobenzoylamino)benzoyl]-2,3,4,5-tetrahydro-1H-benzoazepine] | 10 | 23 | 100
3 | COc1cc(NC(=O)c2ccccc2Cl)ccc1C(=O)N1CCCC(CC(=O)N2CCN(CC(O)CNC(C)C)CC2)c2cc(Cl)ccc21 (stereo not drawn) [Example 87, 5-[4-(2-Hydroxy-3-isopropylaminopropyl)-1-piperazinyl]carbonylmethyl-7-chloro-1-[2-methoxy-4-(2-chlorobenzoylamino)benzoyl]-2,3,4,5-tetrahydro-1H-benzoazepine] | 2 | 7 | 70
4 | COc1cc(NC(=O)c2ccccc2Cl)ccc1C(=O)N1CCCC(CC(=O)N(C)CCO)c2cc(Cl)ccc21 (stereo not drawn) [Example 88, 5-[N-Methyl-N-(2-hydroxyethyl)amino]-carbonylmethyl-7-chloro-1-[2-methoxy-4-(2-chlorobenzoylamino)benzoyl]-2,3,4,5-tetrahydo-1H-benzoazepine] | 2 | 10 | 58
5 | COc1cc(NC(=O)c2ccccc2Cl)ccc1C(=O)N1CCCC(CC(=O)N2CCCN(C)CC2)c2cc(Cl)ccc21 (stereo not drawn) [Example 125, 5-(4-Methyl-1-homopiperazinyl)carbonylmethyl-7-chloro-1-[2-methoxy-4-(2-chlorobenzoylamino)benzoyl]-2,3,4,5-tetrahydro-1H-benzoazepine] | 4 | 8 | 37
6 | COc1cc(NC(=O)c2ccccc2Cl)ccc1C(=O)N1CCCC(CC(=O)NCc2ccccn2)c2cc(Cl)ccc21 (stereo not drawn) [Example 126, 5-(2-Pyridylmethyl)aminocarbonylmethyl-7-chlor-[2-methoxy-4-(2-chlorobenzoylamino)benzoyl]-2,3,4,5-tetrahydro-1H-benzoazepine] | 5 | 24 | 73
7 | COc1cc(NC(=O)c2ccccc2Cl)ccc1C(=O)N1CCCC(CC(=O)Nc2ccncc2)c2cc(Cl)ccc21 (stereo not drawn) [Example 127, 5-(4-Pyridyl)aminocarbonylmethyl-7-chloro-1-[2-methoxy-4-(2-chlorobenzoylamino)benzoyl]-2,3,4,5-tetrahydro-1H-benzoazepine] | 4 | 23 | 32
8 | CCN1CCN(C(=O)COC2CCCN(C(=O)c3ccc(N4CCc5ccccc5C4=O)cc3)c3ccc(Cl)cc32)CC1 (stereo not drawn) [Example 128, 5-(4-Ethyl-1-piperazinyl)carbonylmethoxy-7-chloro-1-[4-(1-oxo-1,2,3,4-tetrahydroisoquinolin-2-yl)benzoyl]-2,3,4,5-tetrahydro-1H-benzoazepine] | 13 | 14 | 95
9 | COc1cc(NC(=O)c2ccccc2Cl)ccc1C(=O)N1CCCC(CC(=O)NCCc2ccccn2)c2cc(Cl)ccc21 (stereo not drawn) [Example 130, 5-[2-(2-Pyridyl)ethyl]aminocarbonylmethyl-7-chloro-1-[2-methoxy-4-(2-chlorobenzoylamino)benzoyl]-2,3,4,5-tetrahydro-1H-benzoazepine] | 4 | 18 | 115
10 | CCN(CC)CCOC1CCCN(C(=O)c2ccc(N3Cc4ccccc4C3=O)cc2)c2ccc(Cl)cc21 (stereo not drawn) [Example 131, 5-(2-Diethylaminoethoxy)-7-chloro-1-[4-(1-oxoisoindolin-2-yl)benzoyl]-2,3,4,5-tetrahydro-1H-bezoazepine] | 170 | 32 | 1790
11 | CCN1CCN(C(=O)CCOC2CCCN(C(=O)c3ccc(N4Cc5ccccc5C4=O)cc3)c3ccc(Cl)cc32)CC1 (stereo not drawn) [Example 132, 5-(4-Ethyl-1-piperazinyl)carbonylethoxy-7-chloro-1-[4-(1-oxoisoindolin-2-yl)benzoyl]-2,3,4,5-tetrahydro-1H-benzoazepine] | 120 | 90 | 478
12 | CNC(=S)NCCOC1CCCN(C(=O)c2ccc(NC(=O)c3ccccc3Cl)cc2OC)c2ccc(Cl)cc21 (stereo not drawn) [Example 133, 5-(2-Methylaminothiocarbonylaminoethoxy)-7-chloro-1-[2-methoxy-4-(2-chlorobenzoylamino)benzoyl]-2,3,4,5-tetrahydro-1H-benzoazepine] | 49 | 20 | 72
13 | COc1cc(NC(=O)c2ccccc2Cl)ccc1C(=O)N1CCCC(CC(=O)NCc2cnc(C)cn2)c2cc(Cl)ccc21 (stereo not drawn) [Example 134, 5-(5-Methyl-2-pyrazinyl)methylaminocarbonylmethyl-7-chloro-1-[2-methoxy-4-(2-chlorobenzoylamino)benzoyl]-2,3,4,5-tetrahydro-1H-benzoazepine] | 4 | 12 | 96
14 | COc1cc(NC(=O)c2ccccc2Cl)ccc1C(=O)N1CCCC(OCCNC(C)=N)c2cc(Cl)ccc21 (stereo not drawn) [Example 135, 5-[2-(1-Iminoethyl)aminoethoxy]-7-chloro-1-[2-methoxy-4-(2-chlorobenzoylamino)benzoyl]-2,3,4,5-tetrahydro-1H-benzoazepine.cndot.hydrochloride] | 4.9 | 18 | 146
15 | COc1cc(NC(=O)c2ccccc2Cl)ccc1C(=O)N1CCCC(OCCNC(N)=O)c2cc(Cl)ccc21 (stereo not drawn) [Example 136, 5-(2-Ureidoethoxy)-7-chloro-1-[2-methoxy-4-(2-chlorobenzoylamino)benzoyl]-2,3,4,5-tetrahydro-1H-benzoazepine] | 4.3 | 37 | 151
16 | CCOC(=O)NCCOC1CCCN(C(=O)c2ccc(NC(=O)c3ccccc3Cl)cc2OC)c2ccc(Cl)cc21 (stereo not drawn) [Example 137, 5-(2-Ethoxycarbonylaminoethoxy)-7-chloro-1-[2-methoxy-4-(2-chlorobenzoylamino)benzoyl]-2,3,4,5-tetrahydro-1H-benzoazepine] | 5 | 17 | 451
17 | COc1cc(NC(=O)c2ccccc2Cl)ccc1C(=O)N1CCCC(OCCNC2CC2)c2cc(Cl)ccc21 (stereo not drawn) [Example 138, 5-(2-Cyclopropylaminoethoxy)-7-chloro-1-[2-methoxy-4-(2-chlorobenzoylamino)benzoyl]-2,3,4,5-tetrahydro-1H-benzoazepine.cndot.hydrochloride] | 3 | 5 | 233
